In patent publication US11672794B2, “Therapeutic targeting of the BAP1 complex in cancer” (NORTHWESTERN UNIVERSITY, priority 2019, dated 2023):

Legend:
[1] = tested on: 293T-ASXL1-Y591* mutant cells vs 293T-ASXL1-WT cells; experiment: Cell viability (cell counting) of 293T-ASXL1-WT and 293T-ASXL1-Y591* mutant cells, 72 hours; type: cell-based, human; settings: cell counting assay
Protocol: FIG. 11. Analog for compound #7152836 A) Structure of 16 analogs for compound #7152836. B) Dose-dependent inhibition of BAP1 activity the analogs in (A) in Ub-AMC assay. C) 293T-ASXL1-WT, 293T-ASXL1-Y591* mutant cells were treated with different concentrations of Doxorubicin, HSP90 inhibitor PU-H71, UCHLS inhibitor b-AP1 and iBAP for 72 hours. The cell viability was determined by cell counting assay.
Since the truncated ASXL1 functions as co-activator of BAP1 in human leukemic cells, and based on previous studies, mutations in ASXL1 lead to the hyper-activation of BAP1 in mice (16), we sought to identify small molecule inhibitors that inhibit BAP1 catalytic activity. Although crucial catalytic residues in BAP1 have been identified through general homology with other deubiquitinases, a detailed atomic resolution structure of BAP1 has yet to be determined. Therefore, because a structure-based approach is currently unattainable, we adopted a structure-agnostic unbiased biochemical screen for small molecule inhibitors of BAP1′s deubiquitinase activity. Toward this goal, we employed an Ubiquitin- 7-amino-4-methylcoumarin (Ub-AMC) screening platform. […] Upon incubation with a protease recognizing Ubiquitin, such as BAP1, AMC is released and the increase in fluorescence can be measured (7, 17) (FIG. 4A). […]

recombinant BAP1 = biological target: T1, recombinant BAP1 (Homo sapiens, UniProt Q92560); experiment: Ub-AMC assay of BAP1 deubiquitinase activity; type: biochemical; settings: 100 nM Ub-AMC, 0.1 nM recombinant BAP1
T1 construct: made in house; host or cells: bacteria
T1 sequence (Q92560 1-729): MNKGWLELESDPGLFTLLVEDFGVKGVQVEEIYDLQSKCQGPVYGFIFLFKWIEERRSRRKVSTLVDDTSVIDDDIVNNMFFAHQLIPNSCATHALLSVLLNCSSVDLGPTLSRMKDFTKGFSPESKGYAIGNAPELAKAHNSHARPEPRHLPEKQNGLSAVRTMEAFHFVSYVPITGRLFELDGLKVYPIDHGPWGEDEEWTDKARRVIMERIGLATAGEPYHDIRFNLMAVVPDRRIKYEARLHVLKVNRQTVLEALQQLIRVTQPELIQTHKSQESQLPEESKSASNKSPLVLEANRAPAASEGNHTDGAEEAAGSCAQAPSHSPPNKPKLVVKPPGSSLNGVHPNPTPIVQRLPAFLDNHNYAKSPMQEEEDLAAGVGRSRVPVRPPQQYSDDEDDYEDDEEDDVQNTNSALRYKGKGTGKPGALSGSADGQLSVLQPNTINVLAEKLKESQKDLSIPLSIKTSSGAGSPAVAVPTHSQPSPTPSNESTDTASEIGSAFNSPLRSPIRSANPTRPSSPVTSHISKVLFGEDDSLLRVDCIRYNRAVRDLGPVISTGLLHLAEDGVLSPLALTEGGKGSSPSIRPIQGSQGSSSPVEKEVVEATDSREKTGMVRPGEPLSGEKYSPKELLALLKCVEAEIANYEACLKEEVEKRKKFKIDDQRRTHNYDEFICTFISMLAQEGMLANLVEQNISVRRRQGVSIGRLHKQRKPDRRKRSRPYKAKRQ
Text: Since the truncated ASXL1 functions as co-activator of BAP1 in human leukemic cells, and based on previous studies, mutations in ASXL1 lead to the hyper-activation of BAP1 in mice (16), we sought to identify small molecule inhibitors that inhibit BAP1 catalytic activity. Although crucial catalytic residues in BAP1 have been identified through general homology with other deubiquitinases, a detailed atomic resolution structure of BAP1 has yet to be determined. Therefore, because a structure-based approach is currently unattainable, we adopted a structure-agnostic unbiased biochemical screen for small molecule inhibitors of BAP1′s deubiquitinase activity. Toward this goal, we employed an Ubiquitin- 7-amino-4-methylcoumarin (Ub-AMC) screening platform. Ubiquitin-AMC (Ub-AMC) is a fluorogenic substrate for ubiquitin hydrolases based on the C-terminus derivatization of ubiquitin with 7-amido-4-methylcoumarin (AMC). Upon incubation with a protease recognizing Ubiquitin, such as BAP1, AMC is released and the increase in fluorescence can be measured (7, 17) (FIG. 4A). We optimized the screening condition and finally used 100 nM Ub-AMC and 0.1 nM recombinant BAP1 (FIG. 10A) for the reaction (FIG. 10B). The top 1% hits from 3,000 of 8-compound mixtures were subjected for a secondary validation (FIG. 10C, D). […]

| SMILES | difference of cell viability between ASXL1 wild type and mutant cells [1] | inhibition of BAP1 catalytic activity in vitro (recombinant BAP1) |
| --- | --- | --- |
| C=CC(=O)N1C/C(=C\c2ccc([N+](=O)[O-])cc2)C(=O)/C(=C/c2ccc([N+](=O)[O-])cc2)C1 [UCHLS inhibitor] | did not observe any significant difference |  |
| COc1ccccc1C(=O)NC(=S)Nc1ccc2oc(-c3cc(F)c(F)cc3Cl)nc2c1 [#7231120] |  | could efficiently inhibit BAP1 catalytic activity |
